# How the values were obtained:
# [1] = test system: patients with acute sore throat and pharyngitis; assay: Throat Soreness Scale (TSS), randomized double-blind placebo-controlled single-dose study; assay type: in vivo, human; conditions: single oral dose; for reduction in throat soreness (TSS) compared to placebo over 6 hours: 9 patients per group, vs placebo; for time from which TSS scores separated/differed from placebo: throat soreness difference at individual time points
# Procedure: (§1) A total of 99 patients who met pre-specified inclusion and exclusion criteria, including moderate to severe throat pain intensity, as measured by a score≧7 on the Throat Soreness Scale (TSS), were admitted to the study.
# (§2) There were 9 patients randomly assigned to each treatment group.
# They were discharged home for hourly assessments up to 6 hours post-dose. Patients were allowed alternative analgesic medication at any time during the study.
# (§3) The Throat Soreness Scale (TSS), Swollen Throat Scale (SwoTS), Difficulty Swallowing Scale (DSS), Difficulty Talking Scale (DTS), and other Quality-of-Pain Scales were completed at Baseline (immediately pre-treatment). Each of these measurement instruments is a 0-10 ordinal scale (see TEST PROTOCOL below).
# (§4) After administration of the assigned study medication, patients completed (1) the Throat Soreness Scale, (2) the Swollen Throat Scale, (3) the Difficulty Swallowing Scale, and (4) the Improvement Assessment (IA) every 15 minutes up to 2 hours. Measurements on the Difficulty Talking Scale and the Quality-of-Pain Scales were obtained after these four assessments at 60 minutes and at 2 hours after treatment.
# (§5) After these 2nd hour assessments, patients were discharged from the clinic with a Diary for entering responses on the Throat Soreness Scale, Swollen Throat Scale, Difficulty Swallowing Scale, Difficulty Talking Scale, and Improvement Assessment at 3, 4, 5, and 6 hours. After the 6 hour assessments, patients completed the Quality-of-Pain Scales.
# The patient will be asked to evaluate his/her throat soreness using a 0-to-10 ordinal scale at Baseline as well as at 15, 30, 45, 60, 75, 90, 105 and 120 min and then hourly through 6 hours. The patient will be requested to swallow and instructed:
# The primary endpoint variable is the Summed Difference in Throat Soreness at 6 hours, which is based on the Throat Soreness Scale. The patient will be asked to evaluate his/her throat soreness, using a 0-to-10 ordinal scale at baseline and at 15, 30, 45, 60, 75, 90, 105 minutes and 2, 3, 4, 5, and 6 hours. At each time point post-dose, a difference is calculated between the throat soreness at that time and the patient's baseline throat soreness. The time-weighted Summed Difference in Throat Soreness at each time point is calculated as the sum of the differences from baseline until that time point.
# [2] = test system: patients with acute sore throat and pharyngitis; assay: Improvement Assessment (IA), same study; assay type: in vivo, human; conditions: single oral dose; for patients who achieved at least some improvement within 30 minutes (IA): first 30 minutes, placebo 1/9; for time from which IA scores separated/differed from placebo: improvement at individual time points; for patients who achieved at least 50% improvement over 6 hours (IA): over the 6-hour treatment period, placebo 2/9; for patients who achieved at least some improvement within 1 hour (IA): placebo 4/9
# Excerpt: as §1, §2, §4, §5
# The patient will grade the improvement of his/her throat at 15, 30, 45, 60, 75, 90, 105, and 120 minutes, and at 3, 4, 5, and 6 hours post dose using a 5-category transitional scale. The patient will be instructed:
# “Considering how your throat felt before you took the study medicine, circle the response that best describes how your throat is now.”
# • Grading • no improvement • some improvement • 50% improvement • definite improvement • 100% improvement Data from this scale will be transcribed onto the appropriate Summary Data CRFs. Definite Improvement Level (DIL)
# [3] = test system: patients with acute sore throat and pharyngitis; assay: Difficulty Swallowing Scale (DSS), same study; assay type: in vivo, human; conditions: single oral dose, vs placebo
# Excerpt: as §1, §2, §3, §4
# as §5, with “Scales. […]” for “Scales.”
# [4] = test system: patients with acute sore throat and pharyngitis; assay: Difficulty Talking Scale (DTS), same study; assay type: in vivo, human; conditions: single oral dose, vs placebo
# Excerpt: as §1, §2, §3, §4
# as §5, with “Scales. […]” for “Scales.”
# [5] = test system: patients with acute sore throat and pharyngitis; assay: Throat Function Index (TFI: swallowing and talking), same study; assay type: in vivo, human; conditions: single oral dose, vs placebo
# Excerpt: as §1, §2
# **Difficulty Swallowing and Difficulty Talking comprise the 20-point Throat Function Index.
# [6] = test system: patients with acute sore throat and pharyngitis; assay: Swollen Throat Scale (SwoTS), same study; assay type: in vivo, human; conditions: single oral dose, vs placebo
# Excerpt: as §1, §2, §3, §4
# as §5, with “Scales. […]” for “Scales.”
# [7] = test system: patients with acute sore throat and pharyngitis; assay: Quality of Pain Index (QPI, 12 qualities of throat pain), same study; assay type: in vivo, human; conditions: single oral dose, vs placebo
# Excerpt: as §1, §2, §4, §5
# The patient will be instructed to swallow and instructed: […]
# [8] = test system: patients with acute sore throat and pharyngitis; assay: Definite Improvement Level (DIL), same study; conditions: single oral dose, placebo 11.1%; for patients who achieved their own Definite Improvement Level on the TSS: Throat Soreness Scale
# Procedure: A randomized, double-blind, placebo-controlled single-dose study was performed. In order to be eligible for the study, patients were required to have a history of an acute sore throat and physical evidence of pharyngitis. A total of 99 patients who met pre-specified inclusion and exclusion criteria, including moderate to severe throat pain intensity, as measured by a score≧7 on the Throat Soreness Scale (TSS), were admitted to the study.
# At this visit they were shown each baseline rating scale and asked to indicate which level represented “definite improvement” to them (Definite Improvement Level), the Diary was reviewed for completeness by the Study Nurse, and ongoing evaluation and treatment were provided, if necessary, per standard clinic procedures.
# After the patient is shown his/her completed Baseline Throat Soreness Scale, the Study Nurse will point to the number which the patient marked at Baseline and instruct the patient:
# “Starting at this level with your sore throat, at and below which number means definite improvement to you?”
# Next, the Study Nurse will separately show the patient his/her Baseline Difficulty Swallowing Scale, Swollen Throat Scale, Difficulty Talking Scale, and each of the 10 Quality-of-Pain Scales, with the same instructions for each scale.
# Analyses were performed on all 99 patients (“intent-to-treat analyses”). […] Definite Improvement Level comparisons were performed using Fisher's Exact Test. Correlations between each new rating scale and the TSS were performed using Spearman Rank Correlation.
Compound,reduction in throat soreness (TSS) compared to placebo over 6 hours [1],time from which TSS scores separated/differed from placebo [1],patients who achieved at least some improvement within 30 minutes (IA) [2],time from which IA scores separated/differed from placebo [2],patients who achieved at least 50% improvement over 6 hours (IA) [2],patients who achieved at least some improvement within 1 hour (IA) [2],reduction in difficulty swallowing (DSS) compared with placebo over 6 hours [3],reduction in difficulty talking (DTS) compared with placebo over 6 hours [4],reduction in the TFI compared with placebo over 6 hours [5],reduction in throat swelling (SwoTS) compared with placebo over 6 hours [6],reduction in the QPI compared with placebo over 6 hours [7],patients who achieved their own Definite Improvement Level on the TSS [8],"patients who achieved their own Definite Improvement Level on the ""It hurts"" Quality-of-Pain Scale [8]",patients who achieved their own Definite Improvement Level on the Difficulty Swallowing Scale [8]
CC(=O)Nc1ccc(O)cc1 [acetaminophen],significantly greater reduction in throat soreness compared to placebo,15 min,8/9,30 min,7/9,9/9,significant difference,significant,significantly greater reduction in the TFI,significantly differentiated from placebo,significantly differentiated from placebo,44.4%,55.6%,55.6%
"COc1ccc2cc([C@H](C)C(=O)O)ccc2c1 [naproxen, naproxen sodium]",differentiated from placebo,30 min,4/9,45 min,4/9,7/9,–,–,–,–,–,22.2%,33.3%,33.3%
CC(C)Cc1ccc(C(C)C(=O)O)cc1 (centres unmarked) [ibuprofen],trend,30 min,6/9,30 min,4/9,9/9,greater reduction in difficulty swallowing compared with placebo,–,–,–,–,44.4%,33.3%,44.4%
Cc1ccc(-c2cc(C(F)(F)F)nn2-c2ccc(S(N)(=O)=O)cc2)cc1 [celecoxib],–,30 min,3/9,45 min,8/9,7/9,–,–,–,–,–,77.7%,55.6%,66.7%
